Source: patent US20210387964A1, “HETEROARYLAMINOQUINOLINES AND ANALOGUES” (Bayer Aktiengesellschaft, priority 2018, published 2021)
Where two headings read alike, the source gives them in different places.

Assay: log P by HPLC on reversed-phase column (C 18), EEC Directive 79/831 Annex V.A8
Type: physicochemical
Protocol: In table 1, the log P values were determined in accordance with EEC Directive 79/831 Annex V.A8 by HPLC (High Performance Liquid Chromatography) on a reversed-phase column (C 18), using the method described below: […] If more than one Log P value is available within the same method, all the values are given and separated by “;”.

| logP | Compound | other results |
| --- | --- | --- |
| – | 3-bromo-2-(1-methyl-1H-pyrazol-5-yl)pyridine [IXa.01] | logP (HPLC, reversed-phase C 18, 40° C., 0.1% aqueous formic acid and acetonitrile, gradient 10% to 95% acetonitrile): 1.53 |
| 1.88 | Cc1nc2ccccc2nc1Nc1cccnc1-c1ccnn1C [I.01] | – |
| 1.72 | Cn1nccc1-c1ncccc1Nc1cnc2c(F)cccc2c1 [I.02] | – |
| 1.39 | Cc1c(Nc2ccsc2-c2ccnn2C)cnc2ccccc12 [I.03] | – |
| 2.02 | Cn1nccc1-c1ncccc1Nc1cnc2ccccc2c1Cl [I.08] | – |
| 1.93 | Cn1nccc1-c1ncccc1Nc1cnc2c(F)c(F)ccc2c1 [I.09] | – |
| 2.13 | Cn1nccc1-c1ncccc1Nc1cnc2c(F)c(F)ccc2n1 [I.10] | – |
| 2.75 | CCn1nccc1-c1sccc1Nc1cnc2c(F)cccc2c1 [I.11] | – |
| – | Cn1nccc1-c1sccc1Nc1cnc2c(F)c(F)ccc2c1 [I.13, 7,8-difluoro-N-[2-(1-methyl-1H-pyrazol-5-yl)-3-thienyl]quinolin-3-amine] | chromatographic logP: 2.71 |
| 2.94 | Cn1nccc1-c1sccc1Nc1cnc2c(F)c(F)ccc2n1 [I.14] | – |
| 2.23 | Cc1nc2c(F)c(F)ccc2nc1Nc1cccnc1-c1ccnn1C [I.17] | – |
| 2.00 | Cc1nc2c(F)c(F)ccc2nc1Nc1cncnc1-c1ccnn1C [I.19] | – |
| 2.74 | Cc1nc2c(F)c(F)ccc2cc1Nc1ccsc1-c1ccnn1C [I.21] | – |
| 3.29 | CCn1nccc1-c1sccc1Nc1cnc2c(F)c(F)ccc2n1 [I.23] | – |
| 2.33 | CCCn1nccc1-c1cnccc1Nc1nc2ccc(F)c(F)c2nc1C [I.27] | – |
| 2.60 | CCn1nccc1-c1c(F)cncc1Nc1cc2ccc(F)c(F)c2nc1C [I.28] | – |
| – | Cc1nc2c(F)c(F)ccc2cc1Nc1ccnc(Cl)c1-c1ccnn1C [I.29, N-[2-chloro-3-(1-methyl-1H-pyrazol-5-yl)pyridin-4-yl]-7,8-difluoro-2-methylquinolin-3-amine] | chromatographic logP: 2.27 |
| 2.28 | CCn1nccc1-c1c(Nc2nc3ccc(F)c(F)c3nc2C)cncc1OC [I.30] | – |
| 2.86 | CCCn1nccc1-c1c(F)cncc1Nc1cc2ccc(F)c(F)c2nc1C [I.31] | – |
| 3.06 | CCn1nccc1-c1c(Cl)cncc1Nc1nc2ccc(F)c(F)c2nc1C [I.32] | – |
| 2.64 | CCCn1nccc1-c1c(Nc2nc3ccc(F)c(F)c3nc2C)cncc1OC [I.33] | – |
| 2.82 | CCCn1nccc1-c1c(Nc2cc3ccc(F)c(F)c3nc2C)ccnc1Cl [I.34] | – |
| – | CCCn1nccc1-c1c(Cl)cncc1Nc1nc2ccc(F)c(F)c2nc1C [I.35, N-[5-chloro-4-(1-propyl-1H-pyrazol-5-yl)pyridin-3-yl]-5,6-difluoro-3-methylquinoxalin-2-amine] | chromatographic logP: 3.44 |
| 2.49 | Cn1nccc1-c1cscc1Cc1cnc2c(F)cccc2c1 [I.36] | – |
| 3.77 | Fc1cccc2cc(Cc3cscc3-c3ccsc3)cnc12 [I.37] | – |
| – | Cc1nc2c(F)c(F)ccc2cc1Cc1cscc1-c1ccnn1C [I.38, 7,8-difluoro-2-methyl-3-{[4-(1-methyl-1H-pyrazol-5-yl)-3-thienyl]methyl}quinoline] | chromatographic logP: 3.01 |

| logP | Compound | other results |
| --- | --- | --- |
| 4.47 | Cc1nc2c(F)c(F)ccc2cc1Cc1cscc1-c1ccsc1 [I.39] | – |
| 2.11 | CCCn1nccc1-c1c(C)cncc1Nc1cc2ccc(F)c(F)c2nc1C [I.40] | – |
| 2.22 | CCn1nccc1-c1c(F)cncc1Nc1cc2ccc(F)c(OC)c2nc1C [I.41] | – |
| 2.06 | CCn1nccc1-c1c(Nc2cc3ccc(F)c(F)c3nc2C)cncc1OC [I.42] | – |
| 2.86 | CCn1nccc1-c1c(Cl)cncc1Nc1cc2ccc(F)c(F)c2nc1C [I.43] | – |
| 2.51 | CCCn1nccc1-c1c(F)cncc1Nc1cc2ccc(F)c(OC)c2nc1C [I.44] | – |
| 2.30 | CCCn1nccc1-c1c(Nc2cc3ccc(F)c(F)c3nc2C)cncc1OC [I.45] | – |
| 3.20 | CCCn1nccc1-c1c(Cl)cncc1Nc1cc2ccc(F)c(F)c2nc1C [I.46] | – |
| 3.10 | CCOCn1nccc1-c1ccsc1Cc1cnc2c(F)cccc2c1 [I.47] | – |
| 3.64 | CCOCn1nccc1-c1ccsc1Cc1cc2ccc(F)c(F)c2nc1C [I.48] | – |
| 2.92 | Cc1nc2c(F)c(F)ccc2cc1Cc1cccnc1Br [IIa.01] | – |
| 2.07 | CS(=O)(=O)N(c1cnc2c(F)cccc2c1)c1cccnc1Cl [IIa.02] | – |
| 2.41 | Cc1nc2c(F)c(F)ccc2nc1Nc1cnccc1Cl [IIc.01] | – |
| 2.94 | Cc1nc2c(F)c(F)ccc2cc1Nc1cncc(F)c1I [IIc.02] | – |
| 3.36 | Fc1cccc2cc(Cc3cscc3Br)cnc12 [IIf.01] | – |
| – | Cc1nc2c(F)c(F)ccc2cc1Cc1cscc1Br [IIf.02, 3-[(4-bromo-3-thienyl)methyl]-7,8-difluoro-2-methylquinoline] | chromatographic logP: 4 |
| 3.50 | Fc1cccc2cc(Cc3sccc3Br)cnc12 [IIg.01] | – |
| 4.19 | Cc1nc2c(F)c(F)ccc2cc1Cc1sccc1Br [IIg.02] | – |
| – | CCn1nccc1-c1ccncc1Cl [IXc.01, 3-chloro-4-(1-ethyl-1H-pyrazol-5-yl)pyridine] | chromatographic logP: 1.73 |
| – | Cn1nccc1-c1sccc1Br [IXe.01, 5-(3-bromo-2-thienyl)-1-methyl-1H-pyrazole] | chromatographic logP: 2.29 |
| – | CCn1nccc1-c1sccc1Br [IXe.02, 5-(3-bromo-2-thienyl)-1-ethyl-1H-pyrazole] | chromatographic logP: 2.72 |
| – | CCCn1nccc1-c1ccncc1N [XIc.01, 4-(1-propyl-1H-pyrazol-5-yl)pyridin-3-amine] | chromatographic logP: 0.11 |
| – | CCn1nccc1-c1c(N)cncc1OC [XIc.02, 4-(1-ethyl-1H-pyrazol-5-yl)-5-methoxypyridin-3-amine] | chromatographic logP: 0.08 |
| – | CCn1nccc1-c1c(N)cncc1Cl [XIc.03, 5-chloro-4-(1-ethyl-1H-pyrazol-5-yl)pyridin-3-amine] | chromatographic logP: 1.3 |
| – | CCCn1nccc1-c1c(N)cncc1OC [XIc.04, 5-methoxy-4-(1-propyl-1H-pyrazol-5-yl)pyridin-3-amine] | chromatographic logP: 0.45 |
| – | CCCn1nccc1-c1c(N)cncc1Cl [XIc.05, 5-chloro-4-(1-propyl-1H-pyrazol-5-yl)pyridin-3-amine] | chromatographic logP: 1.64 |

| Compound | logP | other results |
| --- | --- | --- |
| Cc1nc2ccccc2nc1Nc1ccsc1-c1ccnn1C [I.04] | 2.47 | – |
| Cn1nccc1-c1sccc1Nc1cnc2c(F)cccc2c1 [I.05] | 2.49 | – |
| CCn1nccc1-c1sccc1Nc1cnc2ccccc2c1C [I.06] | 1.60 | – |
| CCn1nccc1-c1sccc1Nc1nc2ccccc2nc1C [I.07] | 2.80 | – |
| Cn1nccc1-c1sccc1Nc1cnc2ccccc2c1Cl [I.12] | 2.66 | – |
| Cc1nc2c(F)c(F)ccc2cc1Cc1cccnc1-c1ccnn1C [I.15] | 2.17 | – |
| Cc1nc2c(F)c(F)ccc2cc1Nc1cccnc1-c1ccnn1C [I.16] | 2.04 | – |
| Cc1nc2c(F)c(F)ccc2cc1Cc1cccnc1-c1ccsc1 [I.18] | 2.05 | – |
| CCn1nccc1-c1sccc1Nc1cnc2ccccc2c1Cl [I.20] | 2.98 | – |
| CCn1nccc1-c1sccc1Nc1cnc2c(F)c(F)ccc2c1 [I.22] | 2.92 | – |
| Cc1nc2c(F)c(F)ccc2nc1Nc1ccsc1-c1ccnn1C [I.24] | 2.90 | – |
| CCn1nccc1-c1sccc1Nc1cc2ccc(F)c(F)c2nc1C [I.25] | 3.11 | – |
| CCn1nccc1-c1sccc1Nc1nc2ccc(F)c(F)c2nc1C [I.26] | 3.27 | – |
